# Values of other authors in patent publication US20120046172A1, “METHODS FOR USE OF TRIALKYLBENZYLAMMONIUM HALIDE COMPOSITIONS AS NON-SELECTIVE TERRESTRIAL PLANT HERBICIDES” (priority 2010, published 2012).
# How the values were obtained:
# bean plants = conditions: compositions with ADBAC concentrations in the range of 0.1 to 1%; DD215228
# wheat plants = conditions: compositions with ADBAC concentrations in the range of 0.1 to 1%; DD215228
substance,measurement,setting,value
alkyldimethylbenzyl ammonium chloride [ADBAC],Effect on bean plants,bean plants,leaf desiccation and defoliation
same,Effect on wheat plants,wheat plants,plant stunting
